Laboratory results from patent publication US9505841B2, “Use of an anti-Ang2 antibody” (Samsung Electronics Co., Ltd., priority 2013, dated 2016).
Blank lines part the entries; values can stand above or below the molecule they belong to.

Columns and labels:
[1] = test system: LLC tumor; assay: Co-administration of anti-Ang2 antibody and cisplatin in LLC lung cancer animal model; format: in vivo, mouse; conditions: LLC mice; antibody 10 mg/kg i.p. every three days, five times; cisplatin 3 mg/kg i.p. once; control Fc of IgG1
Description: The synergistic effect of co-treatment of antibody 10D6 and cisplatin was examined.
In particular, referring to Example 14, LLC tumor cells were subcutaneously injected into mice. When the size of tumors reached 50˜100 mm^3, anti-Ang2 antibody 10D6 was injected at the concentration of 10 mg/kg via an intraperitoneal injection every three days a total of five times. After administering antibody 10D6 twice, 3 mg/kg of cisplatin (Sigma-Aldrich) was intraperitoneally injected once. The size of tumor (V) was calculated using the following formula: Volume (V)=(width)2×length/2
For comparison, the same experiment was performed to a control group treated with Fc of IgG1 and a comparative group treated with antibody 4H10.
In addition, an experiment was performed to examine whether the synergistic effect obtained by co-administration of 10D6 and cisplatin as described above is due to the increased transporting efficiency of the administered cisplatin induced by the vascular normalization by treatment of 10D6. Cisplatin binds to DNA in a living body and induces crosslinking, thereby inducing cell death. Rat monoclonal anti-Cisplatin modified DNA (CP9/19) antibody (1:200, Abcam), which is capable of binding to DNA modified by cisplatin in tumor frozen sections, and hamster anti-CD31 antibody (1:200, Millipore), were used for immunofluorescence staining, and fluorescence images were obtained using LSM5 confocal microscope (Zeiss). In addition, to examine necrotic region, the tumor frozen sections were stained with H&E according to standard protocol, and then, Eosin+ cell region in tumor was observed. The obtained results are illustrated in FIG. 18C.

[2] = test system: Tie2 receptor; assay: Tie2, Akt and 42/44 phosphorylation in HUVEC: antibody 10D6 versus 10D6 Fab; format: cell-based, human; conditions: 60 nM 10D6 antibody or 10D6 Fab with 40 nM Ang2
Description: To see whether the activation of a Tie2 receptor is resulted from the dimerization of antibody 10D6, Fab fragments of antibody 10D6 were purified and then used for this experiment. The Fab fragments were obtained from antibody 10D6 using an Fab Preparation Kit (Pierce). As a digestion buffer, PBS containing 20 mM EDTA and 20 mM L-Cysteine was used, and the antibody was separated into Fab and Fc by the treatment with an immobilized papain at a room temperature for 2 hours. The Fc fragments were removed from the reaction solution using MabSelectSuRe column (GE Healthcare) to isolate and purify pure Fab fragments only.
HUVEC (ATCC) cells (1×10^6) were cultured in a 100 mm culture dish using EGM-2 (Lonza) media at 37° C. and when they reached 80˜90% confluency, the media were replaced with serum-free media (Lonza) and cultured at 37° C. for 6 to 16 hours. The dish was washed once with PBS and after the replacement with […] sodium orthovanadate (Sigma)-mixed serum free media (Lonza), they were further cultured for 10 min. After washed once with PBS, the cultured cells were treated with a mixture prepared by mixing 60 nM of 10D6 Ang2 antibody or 10D6 Fab with 40 nM of Ang2 protein (R&D systems) and letting them stand for 20 min. and further cultured for 10 min. […]

Molecule: N.N.[Cl][Pt][Cl] [cisplatin, reference compound]
tumor size decreased by, compared to the control [1]: 17.6%

phosphorylation of Tie2, Akt and 42/44 [2]: activation was not observed
B1: 10D6 Fab: Fab fragments of antibody 10D6 obtained by immobilized papain digestion and removal of Fc (antibody, V domains shown)
VH: DVQLQESGPGLVKPSQSLSLTCTVTGYSITSDYAWNWIRQFPGNKLEWMGYINYSGNTDYNPSLKSRSSITRDTSKNQFFLQLNSVTTGDTATYYCARGNFEGAMDYWGQGTSVTVSS
VL: SIVMTQTPKFLLVSAGDRVTITCKASQSVSNDVAWYQQKPGQSPKLLIYYASNRYPGVPDRFTGSGYGTDFTFTISTVQAEDLAVYFCQQDYSSPWTFGGGTKLEIK
